Reference: patent US9993482B2, “Pharmaceutical combination comprising a class III receptor tyrosine kinase inhibitor and the alkylating histone-deacetylase inhibitor fusion molecule EDO-S101 together with its use in the treatment of cancer” (priority 2014, dated 2018)
Where two headings read alike, the source gives them in different places.

How the values were obtained:
[1] = system: acute myeloid leukemia cell line MV-4-11; test: MV-4-11 cell survival, CellTiter-Glo, single drug testing; format: cell-based; details: Homo sapiens, MV4-11, 72 h
Method: Culture media was purchased from GIBCO, USA.
(§1) Equipment used was the EnVision Multi Label Reader, PerkinElmer (USA). CO2 Water Jacketed Incubator, Therma (USA). Reverse microscope, Chongguang XDS-1B, Chongqing Guangdian Corp. (Chongqing, P.R.China).
(§2) The cells were harvested respectively during the logarithmic growth period and counted with a hemocytometer.
(§3) For single drug testing, the cell concentrations were adjusted to 4.44×10^4 cells/ml with the medium supplemented with 10% FBS. 90 μl cell suspensions were added to 96-well plates, such that the final cell density was 4×10^3 cells/well. The appropriate cell density was determined and adjusted according to the results of our first test.
The next day, 10 μl (10×) of drug solution was prepared and dispensed in each well (triplicate for each drug concentration). […] The contents were mixed for 2 minutes on an orbital shaker to induce cell lysis. The plate was allowed to incubate at room temperature for 10 minutes to stabilize the luminescent signal. Finally, the luminescence was recorded using an EnVision Multi Label Reader.
(§4) In order to calculate IC50, a dose-responsive curve was fitted using nonlinear regression model with a sigmoidal dose response. The formula of surviving rate is shown below, and the IC50 was automatically produced by GraphPad Prism 5.0.

[2] = system: acute myeloid leukemia cell line MV-4-11; test: MV-4-11 cell survival, CellTiter-Glo, two drug combination testing (CalcuSyn); format: cell-based; details: MV-4-11, 72 h, combination ratio 1:0.00120494
Method: (§5) The acute myeloid leukemia cell line MV-4-11 (obtained from the ATCC) was cultured in media supplemented with 10% fetal bovine serum (FBS) at a temperature of 37° C., 5% CO2 and 95% humidity. Culture media was purchased from GIBCO, USA. The cells were plated out in 96-Well Flat Clear Bottom Black Polystyrene TC-Treated Microplates (Cat#3603, Corning®).
as §1
(§6) The cells were harvested respectively during the logarithmic growth period and counted with a hemocytometer. The cell viability is over 98% by trypan blue exclusion.
(§7) For two drug combination testing, the cell concentrations were adjusted to 5.00×10^4/ml with the medium supplemented with 10% FBS. 80 μl cell suspensions were added to 96-well plates, such that the final cell densities were 4×10^3 cells/well. The appropriate cell density was determined and adjusted according to the results of our first test.
The next day, 10 μl (10×) of each drug solution was prepared and dispense in each well simultaneously (triplicate for each concentration). After 72 h incubation, 100 μL […]-GLO® Reagent was added to each well. The contents were mixed for 2 minutes on an orbital shaker to induce cell lysis. The plate was allowed to incubate at room temperature for 10 minutes to stabilize luminescent signal. Then the luminescence was recorded using EnVision Multi Label Reader.
as §4, with “5.0. The surviving rate (%)=(LumTest article−LUMMedium control)/(LUMNone treated−LUMMedium control)×100%.” for “5.0.”
(§8) Compound interactions were calculated by multiple drug effect analysis and performed by the median equation principle with CalcuSyn software from the mean affected fraction at each drug ratio concentration of each drug according to the methodology described by Chou and Talalay (Chou et al., Adv. Enzyme Regul., 22, 27-55 (1984)), that calculates a combination index (CI) with the following interpretation: • CI>1: antagonist effect, CI=1: additive effect and CI<1 synergistic effect.
(§9) The CI was calculated from the mean affected fraction at each drug ratio concentration of each drug.

[3] = system: acute myeloid leukemia cell line MOLM-13; test: MOLM-13 cell survival, CellTiter-Glo, single drug testing; format: cell-based; details: Homo sapiens, MOLM-13, 72 h
Method: as §5, with “MOLM-13” for “MV-4-11”, “FBS” for “fetal bovine serum (FBS)”, “[…]” for “TC-Treated”
as §1, §2, §3
The next day, 10 μl (10×) of drug solution was prepared and dispensed in each well (triplicate for each drug concentration). After 72 h incubation, 100 μl CellTiter-Glow Reagent was added to each well. The contents were mixed for 2 minutes on an orbital shaker to induce cell lysis. The plate was allowed to incubate at room temperature for 10 minutes to stabilize the luminescent signal. Finally, the luminescence was recorded using an EnVision Multi Label Reader.
as §4, with “5.0. The surviving rate (%)=(LumTest article−LUMMedium control)/(LumNone treated−LUMMedium control)×100%.” for “5.0.”

[4] = system: acute myeloid leukemia cell line MOLM-13; test: MOLM-13 cell survival, CellTiter-Glo, two drug combination testing (CalcuSyn); format: cell-based; details: MOLM-13, 72 h, combination ratio 1:0.00264302
Method: as §5, with “MOLM-13” for “MV-4-11”, “FBS” for “fetal bovine serum (FBS)”, “[…]” for “TC-Treated”
as §1, §6, §7
The next day, 10 μl (10×) of each drug solution was prepared and dispense in each well simultaneously (triplicate for each concentration). After 72 h incubation, 100 μl CellTiter-Glo® Reagent was added to each well. The contents were mixed for 2 minutes on an orbital shaker to induce cell lysis. The plate was allowed to incubate at room temperature for 10 minutes to stabilize luminescent signal. Then the luminescence was recorded using EnVision Multi Label Reader.
as §4, with “5.0. The surviving rate (%)=(LumTest article−LUMMedium control)/(LumNone treated−LUMMedium control)×100%.” for “5.0.”
as §8, with “Talalay,” for “Talalay (Chou et al., Adv. Enzyme Regul., 22, 27-55 (1984)),”
as §9

[5] = system: multiple myeloma cell lines; details: in vitro; cited from earlier work

Row | SMILES | IC50 [1] [nM] | DRI values at ED75 [2] | DRI values at ED90 [2] | IC50 ([3]; FIG. 3 single drug test using different doses (at 1:2 serial dilutions)) [nM] | IC50 ([3]; FIG. 3 single drug test with cisplatin control) [nM] | DRI values at ED75 [4] | DRI values at ED90 [4] | activity relative to bendamustin (times greater) [5] | IC50 ([1]; read-out: IC50) [nM] | IC50 ([3]; FIG. 3 single drug test using different doses (at 1:2 serial dilutions), read-out: IC50) [nM] | IC50 ([3]; FIG. 3 single drug test with cisplatin control, read-out: IC50) [nM]
1 | Cn1c(CCCCCCC(=O)NO)nc2cc(N(CCCl)CCCl)ccc21 [EDO-S101] | 668 | 1.368 | 1.482 | 1720 | 708 | 5.925 | 8.534 | 35-100 | – | – | –
2 | CC(C)(C)c1cc(NC(=O)Nc2ccc(-c3cn4c(n3)sc3cc(OCCN5CCOCC5)ccc34)cc2)no1 [quizartinib, reference compound] | – | 6.146 | 10.760 | – | – | 3.215 | 6.645 | – | 0.804 | 4.55 | 2.11
